# Values of other authors in publication PMC6476928 (Frontiers in Pharmacology, 2019).
# Key:
# kv4.1 = details: X. laevis oocytes; cited from earlier work
# From the text: Supplement Data_Sheet_1.docx, table 1: Supplementary Table 1.Activity of spider toxins on Kv2 and Kv4 channel subtypes Activities of spider toxins against different subtypes of Kv2 and Kv4 potassium channels are reported as IC50 (nanomolar) or as percentage of current inhibition at a single dose (nanomolar). Affinity (IC50) measurements | column: kv4.1
# Kv4.2 = target: T1, Kv4.2 (Homo sapiens, UniProt Q9NZV8); details: X. laevis oocytes, cited from earlier work
# T1 sequence (Q9NZV8 1-630): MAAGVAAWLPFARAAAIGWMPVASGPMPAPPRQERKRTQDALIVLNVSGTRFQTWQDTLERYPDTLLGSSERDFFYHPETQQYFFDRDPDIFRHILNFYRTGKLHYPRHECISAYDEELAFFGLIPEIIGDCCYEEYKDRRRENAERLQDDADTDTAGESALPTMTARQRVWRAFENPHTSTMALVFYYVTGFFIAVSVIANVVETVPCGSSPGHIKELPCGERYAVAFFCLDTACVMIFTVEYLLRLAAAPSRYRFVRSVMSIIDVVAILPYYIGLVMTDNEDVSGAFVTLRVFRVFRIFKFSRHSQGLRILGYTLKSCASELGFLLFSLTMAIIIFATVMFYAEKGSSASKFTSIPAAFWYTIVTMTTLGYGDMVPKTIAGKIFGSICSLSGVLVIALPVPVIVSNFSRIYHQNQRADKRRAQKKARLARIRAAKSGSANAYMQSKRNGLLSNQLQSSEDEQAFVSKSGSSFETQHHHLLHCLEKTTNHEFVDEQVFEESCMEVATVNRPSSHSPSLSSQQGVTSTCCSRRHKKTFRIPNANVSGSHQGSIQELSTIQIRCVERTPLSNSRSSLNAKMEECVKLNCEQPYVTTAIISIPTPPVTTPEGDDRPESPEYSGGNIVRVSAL
# T1 sequence (Q9NS61 1-270 partner): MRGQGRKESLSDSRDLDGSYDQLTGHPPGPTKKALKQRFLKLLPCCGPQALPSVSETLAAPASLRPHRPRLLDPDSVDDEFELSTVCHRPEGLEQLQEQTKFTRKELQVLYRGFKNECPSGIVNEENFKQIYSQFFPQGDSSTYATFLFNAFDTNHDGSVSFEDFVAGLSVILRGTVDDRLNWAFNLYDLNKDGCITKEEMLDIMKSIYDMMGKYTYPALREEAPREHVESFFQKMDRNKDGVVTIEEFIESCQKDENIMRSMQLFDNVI
# From the text: (§1) Supplement Data_Sheet_1.docx, table 1: Supplementary Table 1.Activity of spider toxins on Kv2 and Kv4 channel subtypes Activities of spider toxins against different subtypes of Kv2 and Kv4 potassium channels are reported as IC50 (nanomolar) or as percentage of current inhibition at a single dose (nanomolar). Affinity (IC50) measurements | column: kv4.2 || Animal toxins target ion channels, and are thus valuable resources with potential therapeutic applications. The Kv4 subfamily from scorpion ([Maffie et al., 2013]; [Xie et al., 2014]) and spider venom ([Escoubas et al., 2002]; [Ebbinghaus et al., 2004]; [Yuan et al., 2007], [2012]; [DeSimone et al., 2009]) has a rich toxin pharmacology. HaTx, originally isolated from venom of the Chilean rose tarantula (Grammostola spatulata), inhibits Kv4.2 channels effectively, with similar affinity for Kv2.1 ([Swartz and MacKinnon, 1995]; [Swartz, 2007]). Other Kv4 channel inhibitors, Stromatoxin (ScTx1) fr ...
# kv2.1 = details: X. laevis oocytes, Hill relation nH = 1; cited from earlier work
# From the text: as §1, with “kv2.1” for “kv4.2”
Substance,activity on kv4.1 (kv4.1),IC50 (Kv4.2; Hill relation nH = 1) [nM],IC50 (kv2.1) [nM],"inhibition (Kv4.2; 500nM, read-out: percentage of current inhibition kv4.2) [%]"
"Stromatoxin [ScTx1, reference compound]",No O,1.2,,
"hanatoxin [HaTx1, reference compound]",,,42,70
